For assay [1], the target named is T1, recombinant human sEH (Homo sapiens, UniProt P34913).
T1 sequence (P34913 1-555): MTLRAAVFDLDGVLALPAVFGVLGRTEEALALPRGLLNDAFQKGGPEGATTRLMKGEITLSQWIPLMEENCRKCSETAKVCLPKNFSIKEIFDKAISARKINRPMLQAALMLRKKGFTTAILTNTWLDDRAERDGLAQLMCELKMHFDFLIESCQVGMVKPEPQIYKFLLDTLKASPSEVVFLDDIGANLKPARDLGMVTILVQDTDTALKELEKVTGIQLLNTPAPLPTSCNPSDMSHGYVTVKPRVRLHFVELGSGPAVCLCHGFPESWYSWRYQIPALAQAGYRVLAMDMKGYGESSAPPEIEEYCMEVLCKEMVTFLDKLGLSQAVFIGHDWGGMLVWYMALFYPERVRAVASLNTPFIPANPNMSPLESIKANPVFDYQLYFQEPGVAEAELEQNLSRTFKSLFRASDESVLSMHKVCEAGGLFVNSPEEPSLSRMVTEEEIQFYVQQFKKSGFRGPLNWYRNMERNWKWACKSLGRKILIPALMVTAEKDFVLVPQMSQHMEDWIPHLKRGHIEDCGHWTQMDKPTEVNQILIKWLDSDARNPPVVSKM
As to the kind of experiment: fluorescence-based sEH activity assay with PHOME substrate. The format is biochemical. From the text:
This assay is based on a reporter construct containing a firefly luciferase under the control of the FXR response element from bile salt export protein (BSEP). FXR and its hetero dimer partner retinoid X receptor (RXR) as expression constructs under the control of a CMV promoter as well as a constitutively expressed renilla luciferase (SV40 promoter) for normalization and toxicity control were co-transfected. […] The sEH inhibitory potency of the test compounds was quantified in a fluorescence-based assay using recombinant enzyme and the fluorogenic sEH substrate PHOME^37 that is hydrolyzed to a fluorescent 6-methoxynaphtaldehyde by sEH.
The sEH inhibitory potency of the compounds were determined in a fluorescence-based 96-well sEH activity assay using recombinant human enzyme^50,51. Non-fluorescent PHOME (3-phenylcyano-(6-methoxy-2-naphthalenyl)methyl ester 2-oxiraneacetic acid; Cayman Chemicals) which can be hydrolyzed by the sEH to fluorescent 6-methoxynaphthaldehyde served as substrate. Recombinant human sEH (in Bis-Tris buffer, pH 7, with 0.1 mg/mL BSA containing a final concentration of 0.01% Triton-X 100) was pre-incubated with test compounds (in DMSO, final DMSO concentration: 1%) for 30 min at room temperature. […] A blank control (no protein and no compound) as well as a positive control (no compound) were executed. All experiments were conducted in triplicate and repeated in at least three independent experiments. For IC50 calculation, dose-response curves of increasing compound concentrations were recorded.

The subject of assay [2] is FXR target genes. As to the kind of experiment: FXR target gene mRNA quantification from mouse livers. The format is in vivo. Conditions: 10 mg/kg p.o., 8 h post dose. On the procedure:
Three additional animals served as vehicle control.
A part of the blood was centrifuged (6000 rpm, 10 min, +4° C.) to obtain plasma for quantification of EET/DHET ratio and stored at −80° C. until further evaluation. For liver collection, mice were sacrificed by cervical dislocation after the last blood sampling (8 h post dose). Complete liver was immediately snap-frozen and stored at −80° C. until further evaluation. Plasma and liver were equally obtained from three control mice which received oral application of the vehicle (1% HPMC/Tween 80 (99:1)).
Quantification of FXR target gene mRNA from mouse livers: Hepatocyte isolation of mouse liver tissue for RT-qPCR: To homogenize the liver samples, one third of each liver was placed on one Falcon™ Cell Strainer with 40 μm pore size (BD Bioscience, Erembodegem, Belgium) in a 50 mL Falcon tube. Every tissue was rinsed with PBS buffer containing 10% FCS and 1% PenStrep and pressed through the cell strainer until 5 mL cell suspension had been collected. The samples were centrifuged at 1200 rpm for to min at 4° C. The supernatant was discarded and the pellets were washed with 5 mL cold PBS buffer and again centrifuged at 1200 rpm for 10 min at 4° C. After discarding the supernatant, the cell pellets were re-suspended in 1 mL PBS and total RNA was extracted using the E. Z. A. Total RNA Kit I (Omega bio-tek Inc., Narcoss, Ga., USA) following the Animal Tissue Protocol. The extracted RNA was used for qRT-PCR and equally treated as described for mRNA quantification from HepG2 cells (see above). PCR primers for the murine genes are listed in the supporting information.

The structures appear in SMILES notation. Where two headings read alike, the source gives them in different places.

Usually IC50 stands for the concentration that gives 50% inhibition. Regarding `CC(C)(C)c1ccc(C(=O)NCc2ccc(NS(C)(=O)=O)cc2Cl)cc1` [compound 57, 4-(tert-Butyl)-N-(2-chloro-4-(methylsulfonamido)benzyl)benzamide], in assay [1] (read-out: IC50 for sEH inhibition), the IC50 was determined as 4.1 ± 0.4 nM. The IC50 in assay [1] (recombinant human sEH, PHOME, read-out: sEH inhibition IC50) is 4.1 ± 0.4 nM. Also, in assay [2], the “increased expression of BSEP in mouse liver” value is “approx. 3 fold”, the “increased expression of FGF15 in mouse liver” value was “approx. 2.5 fold”, the “increased expression of SHP in mouse liver” value is recorded as “approx. 4 fold” and the “reduced SREBP1c levels in mouse liver” value is listed as “approx. 5 fold”. For the same compound, the “SREBP1c mRNA in mouse liver compared to vehicle set as 100%” value in assay [2] (vehicle 82±14) is recorded as 17±10%. In addition, the “BSEP mRNA in mouse liver compared to vehicle set as 100%” value in assay [2] (vehicle 105±24) is given as 312±103%. Also, in assay [2] (vehicle 108+29), the “SHP mRNA in mouse liver compared to vehicle set as 100%” value was found to be 410±147%. For the same compound, the “FGF15 mRNA in mouse liver compared to vehicle set as 100%” value in assay [2] (vehicle 119±15) is on record as 254±9%.

The values are drawn from patent US20200172473A1, “DUAL MODULATORS OF FARNESOID X RECEPTOR AND SOLUBLE EPOXIDE HYDROLASE” (JOHANN WOLFGANG GOETHE-UNIVERSITÄT FRANKFURT AM MAIN, priority 2017, published 2020).
